Laboratory results taken from patent EP1350541A1, “Use of dehydroepiandrosterone and an estradiol derivative for preparing a medicament for treating postmenopausal climacteric disorders” (priority 2002, dated 2003).
Like-named read-outs stand apart in the source and are kept apart here.

Assays:
[1] = test system: Oxytocin (Nachweis der OT mRNA); test: Induction of the estrogen-dependent oxytocin gene (OT mRNA) in the brain of ovariectomised rats; assay type: in vivo, Ratten; conditions: brain of female ovariectomised rats; Abbildung 3
Text: (§1) In Abbildung 3 werden zwei weitere Beispiele für typische Estrogenwirkungen im Gehirn von weiblichen, ovarektomierten Ratten dargestellt. […] (* Bedeutet statistisch signifikant gegenüber der Kontrollgruppe (p<0.01))

[2] = test system: Corticotropin-Releaseinghormon (Nachweis der CRH mRNA); test: Induction of the estrogen-dependent CRH gene (CRH mRNA) in the brain of ovariectomised rats; assay type: in vivo, Ratten; conditions: brain of female ovariectomised rats; Abbildung 3
Text: as §1

[3] = test system: bcl-2; test: Expression of the antiapoptotic gene bcl-2 in the hippocampus of ovariectomised rats; assay type: in vivo, Ratten; conditions: female ovariectomised rats; vs OVX control (p<0.01); Abbildung 4
[4] = Clinical study in healthy women: serum testosterone after oral DHEA, with dexamethasone suppression; assay type: in vivo, Frauen; conditions: single dose of dexamethasone, 100 mg DHEA oral, Abbildung 5
Text: In Abbildung 5 werden daher Ergebnisse einer klinischen Studie mit gesunden Frauen dargestellt. Zur kurzzeitigen Unterdrückung der körpereigenen Steroidproduktion erhielten die Probandinnen einmalig Dexamethason. […] Damit ist der Nachweis geführt, daß DHEA bei Frauen nach oraler Aufnahme im Körper zu dem sehr wirksamen Androgen Testosteron umgewandelt wird, d.h. DHEA ist bei Frauen ein Prodrug für Testosteron.

[5] = 100 mg/Tag oral; Arlt et al., New Engl J Med 1999; cited from earlier work
[6] = Stabilisation of the unstable steroids in drug formulations by stabilisers; assay type: physicochemical
Text: Eine hinreichende Haltbarkeit der an sich sehr instabilen Steroide in Arzneimittelformulierungen wird insbesondere erreicht, wenn ein Stabilisator vorliegt. […] In einer bevorzugten Ausführungsform des erfindungsgemäßen Arzneimittels wird deshalb das Steroid mit Ascorbinsäure stabilisiert. […] Die Konzentration des Stabilisators Ascorbinsäure ist vom Gehalt des Steroids abhängig. Je nach dessen Gehalt werden bei Weichgelatinekapseln 0,1 % bis 1 % Ascorbinsäure, bezogen auf die Füllmasse, eingesetzt.

[7] = test system: induzierbaren Stickstoffmonoxid-Oxidase (iNOS); test: Inhibition of NO release (iNOS) in the brain of ovariectomised rats; assay type: in vivo, Ratten; conditions: female ovariectomised rats; compared with 17β-Estradiol; Abbildung 2; significant vs OVX control (p<0.01)
Text: Eine der typischen Estrogenwirkungen im Gehirn ist die Hemmung der induzierbaren […] (iNOS). […] Die Kontrollgruppe sind ovarektomierte Tiere (OVX), die nur mit dem Lösungsmittel behandelt worden sind. (* Bedeutet statistisch signifikant gegenüber der Kontrollgruppe (p<0.01))

[8] = test system: Uterus; test: Estrogenic effect on the uterus (uterine mass) of ovariectomised rats; assay type: in vivo, Ratten; conditions: female ovariectomised rats, in contrast to 17β-Estradiol; for estrogene Wirkung auf den Uterus (Zunahme der Uterusmasse): Abbildung 3

SMILES | Induktion der estrogenabhängigen Gene für Oxytocin (OT mRNA) [1] | Induktion der estrogenabhängigen Gene für Corticotropin-Releaseinghormon (CRH mRNA) [2] | Expression des antiapoptotischen Gens bcl-2 im Hippocampus [3] | stabilisierende Wirkung (Haltbarkeit der Steroide in Arzneimittelformulierungen) [6] | further results
C[C@]12CC[C@@H]3c4ccc(O)cc4CC[C@H]3[C@@H]1CC[C@@H]2O [17β-Estradiol, reference compound] | gelingt | gelingt | signifikant erhöht |  | 
C[C@]12CC[C@H](O)CC1=CC[C@@H]1[C@@H]2CC[C@]2(C)C(=O)CC[C@@H]12 [DHEA, Dehydroepiandrosteron] |  |  |  |  | Serum-Testosteronkonzentrationen [4]: auf das Niveau der unbehandelten Kontrollen hebt; unerwünschte Virilisierungserscheinungen [5]: keine unerwünschten Virilisierungserscheinungen
COc1ccc(O)c(C(C)(C)C)c1 [Butylhydroxyanisol] |  |  |  | deutlich weniger effektiv | 
CCCCCCCCCCCCCCCC(=O)OC[C@H](O)[C@H]1OC(=O)C(O)=C1O [Ascorbylpalmitat] |  |  |  | deutlich weniger effektiv | 
C[C@]12CCC3=C(CCc4cc(O)ccc43)[C@@]13C[C@H]3C[C@H]2O [J 861, 14α, 15α-Methylenestra-1,3,5(10),8-tetraen-3,17α-diol] | gelingt | gelingt | signifikant erhöht |  | Hemmung der Freisetzung von NO [7]: genauso stark wie bei dem wichtigsten körpereigenen Estrogen, dem 17β-Estradiol; estrogene Wirkung auf den Uterus (Zunahme der Uterusmasse) [8]: nicht nachweisbar; Wirkung auf den Uterus ([8]; Abbildung 4): keinerlei Wirkung auf den Uterus
Cc1cc(C(C)(C)C)c(O)c(C(C)(C)C)c1 [Butylhydroxytoluol] |  |  |  | deutlich weniger effektiv | 
C[C@]12CC[C@@H]3c4ccc(O)cc4CC[C@H]3[C@@H]1CC[C@H]2O [17α-Estradiol] |  |  | im Gegensatz |  | 
O=C1O[C@H]([C@@H](O)CO)C(O)=C1O [Ascorbinsäure] |  |  |  |  | stabilisierende Wirkung (Haltbarkeit der Steroide in Arzneimittelformulierungen) ([6]; stabiliser added to the steroid formulation): besonders wirksam
C[C@]12CCC3=C(CCc4cc(O)ccc43)[C@@H]1CC[C@H]2O [J 811, Estra-1,3,5(10),8-tetraen-3,17α-diol] | gelingt | gelingt |  |  | Hemmung der Freisetzung von NO [7]: genauso stark wie bei dem wichtigsten körpereigenen Estrogen, dem 17β-Estradiol; estrogene Wirkung auf den Uterus (Zunahme der Uterusmasse) [8]: nicht nachweisbar
